Three molecules from patent publication US20090012054A1, “Cephem Compounds and Use as Antimicrobial Agents” (priority 2006, published 2009) can be followed below.

Values after ≈ are worked out from the molar mass of the structure shown. Read-outs that look alike come from different tables or passages of the source.

Assay in all cases: In vitro antibacterial activity (MIC), two-fold agar-plate dilution method
Type in all cases: cell-based

For test [1], the system named is Pseudomonas aeruginosa 22027. As to conditions: Pseudomonas aeruginosa 22027, metallo β-lactamase producing strain, HI-agar, 37° C. for 20 hours. The protocol: (§1) Now in order to show the utility of the object compound [I], the test data on MIC (minimal inhibitory concentration) of a representative compound of this invention are shown in the following.
(§2) In vitro antibacterial activity was determined by the two-fold agar-plate dilution method as described below.
(§3) One loopful of an overnight culture of each test strain in Trypticase-soy broth (10^6 viable cells per ml) was streaked on heart infusion agar (HI-agar) containing graded concentrations of representative test compound, and the minimal inhibitory concentration (MIC) was expressed in μg/ml after incubation at 37° C. for 20 hours.

Test [2] has as its system Pseudomonas aeruginosa FP 1380. As to conditions: Pseudomonas aeruginosa FP 1380, AmpC β-lactamase overproduced strain, HI-agar, 37° C. for 20 hours. The protocol:
as §1, §2, §3

The test system of test [3] is Pseudomonas aeruginosa 19136. As to conditions: Pseudomonas aeruginosa 19136, metallo β-lactamase producing strain, HI-agar, 37° C. for 20 hours. The protocol:
as §1, §2, §3

Consider `CC(C)(O/N=C(\C(=O)N[C@@H]1C(=O)N2C(C(=O)O)=C(C[n+]3cc(N(CCN)C(=N)N)c4n3CCCN4)CS[C@H]12)c1nsc(N)n1)C(=O)O.O=S(=O)([O-])O` [Compound (B), 7β-[(Z)-2-(5-amino-1,2,4-thiadiazol-3-yl)-2-(1-carboxy-1-methylethoxyimino)acetamido]-3-{3-[1-(2-aminoethyl)guanidino]-4,5,6,7-tetrahydro-1-(pyrazolo[1,5-a]pyrimidinio)}methyl-3-cephem-4-carboxylate sulfate], for which the values for the minimal inhibitory concentration (MIC) in test [1], in test [2] and in test [3] were 8 µg/mL, 0.5 µg/mL and 2 µg/mL, respectively.

Regarding “7β-[(Z)-2-(5-amino-1,2,4-thiadiazol-3-yl)-2-(1-carboxy-1-methylethoxyimino)acetamido]-3-{3-[1-(3-aminopropyl)guanidino]-2,3-dihydro-5-(1H-imidazo[1,2-b]pyrazolio)}methyl-3-cephem-4-carboxylate sulfate [Compound (A)]”, the figures for the minimum inhibitory concentration (MIC) in test [1], in test [2] and in test [3] were 8 µg/mL, 0.5 µg/mL and 2 µg/mL, respectively.

Turning to `C[C@H]1[C@H](NC(=O)/C(=N\OC(C)(C)C(=O)O)c2csc(N)n2)C(=O)N1S(=O)(=O)O` [Aztreonam, reference compound], the MIC in test [1] (read-out: MIC) was determined as 32 µg/mL (≈ 73.5 µM); in test [2] (FP1380, read-out: MIC), 64 µg/mL (≈ 147 µM); in test [3] (read-out: MIC) it was 4 µg/mL (≈ 9.19 µM).
